In patent publication US10059704B2, “1,4-disubstituted 1,2,3-triazoles, methods for preparing same, and diagnostic and therapeutic uses thereof” (CENTRE NATIONAL DE LA RECHERCHE SCIENTIFIQUE (C.N.R.S.), priority 2011, dated 2018):
Where two headings read alike, the source gives them in different places.

What was measured:
nicotinic receptors Rα7 = nicotinic receptors Rα7 (Rattus norvegicus, UniProt Q05941); test: biochemical; assay type: binding
[1] = rat frontal cortex membranes, [125I]α-bungarotoxin 2 nM, 22° C., 3 hours, Ki calculated from IC50 (Cheng and Prussof), read-out: Activity on Rα7

Sequence of nicotinic receptors Rα7 (Q05941 23-502): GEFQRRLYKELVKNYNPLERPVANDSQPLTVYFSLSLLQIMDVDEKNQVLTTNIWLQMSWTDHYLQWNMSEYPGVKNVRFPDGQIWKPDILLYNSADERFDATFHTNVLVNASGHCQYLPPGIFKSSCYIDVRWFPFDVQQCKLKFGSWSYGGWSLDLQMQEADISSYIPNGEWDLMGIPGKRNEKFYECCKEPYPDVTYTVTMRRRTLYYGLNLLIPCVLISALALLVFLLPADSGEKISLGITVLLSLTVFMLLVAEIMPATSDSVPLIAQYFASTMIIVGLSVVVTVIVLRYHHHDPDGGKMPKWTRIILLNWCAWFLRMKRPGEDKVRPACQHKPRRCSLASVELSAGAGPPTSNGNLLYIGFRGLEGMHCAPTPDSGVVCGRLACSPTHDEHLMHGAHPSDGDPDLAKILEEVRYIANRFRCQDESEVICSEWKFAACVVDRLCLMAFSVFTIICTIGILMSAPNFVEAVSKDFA

Structure (SMILES) | melting point | Ki (nicotinic receptors Rα7; [1]) [µM] | Ki (nicotinic receptors Rα7) [µM]
c1ccc(-c2ccc(-c3cn([C@H]4CN5CCC4CC5)nn3)s2)cc1 | 184 °C |  | 
COC(=O)c1ccc(-c2ccc(-c3cn([C@H]4CN5CCC4CC5)nn3)s2)cc1Cl | 200 °C |  | 
Clc1ccc(-c2cccc(-c3cn([C@H]4CN5CCC4CC5)nn3)c2)cn1 | 80 °C (dec.) |  | 
CN1CCN(Cc2cccc(-c3ccc(-c4cn([C@H]5CN6CCC5CC6)nn4)s3)c2)CC1 | 155 °C |  | 
O=[N+]([O-])c1ccc(-c2ccc(-c3cn([C@H]4CN5CCC4CC5)nn3)s2)cn1 | 160 °C |  | 
O=[N+]([O-])c1ccc(-c2cccc(-c3cn([C@H]4CN5CCC4CC5)nn3)c2)cn1 | 180 °C |  | 
FCc1cccc(-c2ccc(-c3cn([C@H]4CN5CCC4CC5)nn3)s2)c1 | 144 °C |  | 
Cl.ClCc1ccc(-c2ccc(-c3cn([C@H]4CN5CCC4CC5)nn3)s2)cc1 | 255 °C |  | 
Cl.ClCc1ccc(-c2cn([C@H]3CN4CCC3CC4)nn2)cc1 | 240 °C |  | 
c1ccc(-c2cn(C3CCCN4CCCCC34)nn2)cc1 (centres unmarked) | 150 °C |  | 
Fc1ccc(-c2cn(C3CCCN4CCCCC34)nn2)cc1 (centres unmarked) | 142 °C |  | 
COc1ccc(-n2cc(C3(O)CN4CCC3CC4)nn2)cc1 (centres unmarked) | 174 °C |  | 
OC1(c2cn(-c3ccc(Br)cc3)nn2)CN2CCC1CC2 (centres unmarked) | 214 °C |  | 
Brc1ccc(-c2cn([C@H]3CN4CCC3CC4)nn2)o1 | 144 °C |  | 
Brc1csc(-c2cn([C@H]3CN4CCC3CC4)nn2)c1 | 106 °C |  | 
Brc1coc(-c2cn([C@H]3CN4CCC3CC4)nn2)c1 | 129 °C |  | 
Fc1ccc(-c2ccc(-c3cn([C@H]4CN5CCC4CC5)nn3)cc2)cn1 | 181 °C |  | 
c1ccc(-c2cn([C@H]3CN4CCC3CC4)nn2)cc1 [Compound 37, (R)-3-(4-Phenyl-1H-1,2,3-triazol-1-yl)quinuclidine] | 132 °C | 0.008 ± 0.004 | 
OCc1ccc(-c2cn([C@H]3CN4CCC3CC4)nn2)cc1 [Compound 38, (R)-(4-(1-(Quinuclidin-3-yl)-1H-1,2,3-triazol-4-yl)phenyl)methanol] | 200 °C |  | 
Clc1ccc(-c2cn([C@H]3CN4CCC3CC4)nn2)cc1 [Compound 39, (R)-3-(4-(4-Chlorophenyl)-1H-1,2,3-triazol-1-yl)quinuclidine] | 144 °C | 0.008 ± 0.003 | 
Clc1ccc(-c2cn([C@H]3CN4CCC3CC4)nn2)cc1Cl [Compound 40, (R)-3-(4-(3,4-Dichlorophenyl)-1H-1,2,3-triazol-1-yl)quinuclidine] | 108 °C | 0.019 ± 0.006 | 
Brc1ccc(-c2cn([C@H]3CN4CCC3CC4)nn2)cc1 [Compound 41, (R)-3-(4-(4-Bromophenyl)-1H-1,2,3-triazol-1-yl)quinuclidine] | 158 °C |  | 0.006 ± 0.003
Fc1ccc(-c2cn([C@H]3CN4CCC3CC4)nn2)cc1 [Compound 42, (R)-3-(4-(4-Fluorophenyl)-1H-1,2,3-triazol-1-yl)quinuclidine] | 180 °C |  | 
Fc1cccc(-c2cn([C@H]3CN4CCC3CC4)nn2)c1 [Compound 43, (R)-3-(4-(3-Fluorophenyl)-1H-1,2,3-triazol-1-yl)quinuclidine] | 120 °C | 0.01 ± 0.001 | 
Fc1ccccc1-c1cn([C@H]2CN3CCC2CC3)nn1 [Compound 44, (R)-3-(4-(2-Fluorophenyl)-1H-1,2,3-triazol-1-yl)quinuclidine] | 94 °C | 0.013 ± 0.003 | 
Fc1ccc(-c2cn([C@H]3CN4CCC3CC4)nn2)cc1F [Compound 45, (R)-3-(4-(3,4-difluorophenyl)-1H-1,2,3-triazol-1-yl) quinuclidine] | 122 °C | 0.01 ± 0.004 | 

Structure (SMILES) | melting point | Ki (nicotinic receptors Rα7; [1]) [µM] | Ki (nicotinic receptors Rα7) [µM]
COc1cccc(-c2cn([C@H]3CN4CCC3CC4)nn2)c1 [Compound 47, (R)-3-(4-(3-Methoxyphenyl)-1H-1,2,3-triazol-1-yl)quinuclidine] |  | 0.0023 ± 0.001 | 
COc1ccccc1-c1cn([C@H]2CN3CCC2CC3)nn1 [Compound 48, (R)-3-(4-(2-Methoxyphenyl)-1H-1,2,3-triazol-1-yl)quinuclidine] | 120 °C |  | 
COc1ccc2cc(-c3cn([C@H]4CN5CCC4CC5)nn3)ccc2c1 [Compound 49, (R)-3-(4-(6-Methoxynaphthalen-2-yl)-1H-1,2,3-triazol-1-yl)quinuclidine] | 186 °C | 0.196 ± 0.021 | 
c1cc(-c2cn([C@H]3CN4CCC3CC4)nn2)ccn1 [Compound 50, (R)-3-(4-(Pyridin-4-yl)-1H-1,2,3-triazole-1-yl)quinuclidine] | 150 °C |  | 
Fc1ccc(-c2cn([C@H]3CN4CCC3CC4)nn2)cn1 [Compound 51, (R)-3-(4-(6-fluoropyridin-3-yl)-1H-1,2,3-triazol-1-yl) quinuclidine] | 147 °C | 0.469 ± 0.006 | 
COc1ccc(-c2cn([C@H]3CN4CCC3CC4)nn2)cn1 [Compound 52, (R)-3-(4-(6-Methoxypyridin-3-yl)-1H-1,2,3-triazol-1-yl)quinuclidine] | 155 °C | 0.105 ± 0.029 | 
c1csc(-c2cn([C@H]3CN4CCC3CC4)nn2)c1 [Compound 53, (R)-3-(4-(Thiophen-2-yl)-1H-1,2,3-triazol-1-yl)quinuclidine] | 137 °C | 0.0095 ± 0.003 | 
Brc1ccc(-c2cn([C@H]3CN4CCC3CC4)nn2)s1 [Compound 54, (R)-3-(4-(5-Bromothiophen-2-yl)-1H-1,2,3-triazol-1-yl) quinuclidine] | 146 °C |  | 0.013 ± 0.004
c1cc2cc(-c3cn([C@H]4CN5CCC4CC5)nn3)ccc2s1 [Compound 55, (R)-3-(4 Benzo[b](thiophen-5-yl)-1H-1,2,3-triazol-1-yl) quinuclidine] | 178 °C | 0.019 ± 0.001 | 
c1cc2cc(-c3cn([C@H]4CN5CCC4CC5)nn3)ccc2o1 [Compound 56, (R)-3-(4-(Benzofuran-5-yl)-1H-1,2,3-triazol-1-yl)quinuclidine] | 178 °C | 0.003 ± 0.001 | 
Fc1ccc(-c2cn([C@@H]3CN4CCC3CC4)nn2)cc1 [Compound 57, (S)-3-(4-(4-Fluorophenyl)-1H-1,2,3-triazol-1-yl)quinuclidine] | 139 °C | 0.114 ± 0.038 | 
FCc1ccc(-c2cn([C@H]3CN4CCC3CC4)nn2)cc1 [Compound 58, (R)-3-(4-(4-(Fluoromethyl)phenyl)-1H-1,2,3-triazol-1-yl)quinuclidine] | 138 °C |  | 
Nc1c(-c2ccccc2)nnn1[C@H]1CN2CCC1CC2 [Compound 60, (R)-4-Phenyl-1-(quinuclidin-3-yl)-1H-1,2,3-triazol-5-amine] | 120 °C |  | 0.011 ± 0.004
c1csc(-c2ccc(-c3cn([C@H]4CN5CCC4CC5)nn3)s2)c1 [Compound 61, (R)-3-(4-(2,7-Bithiophen-5-yl)-1H-1,2,3-triazol-1-yl)quinuclidine] | 182 °C | 0.02 ± 0.002 | 
c1coc(-c2ccc(-c3cn([C@H]4CN5CCC4CC5)nn3)s2)c1 [Compound 62, (R)-3-(4-(5-(Furan-2-yl)thiophen-2-yl)-1H-1,2,3-triazol-1-yl)quinuclidine] | 180 °C | 0.01 ± 0.001 | 
OCc1ccc(-c2ccc(-c3cn([C@H]4CN5CCC4CC5)nn3)s2)cc1 [Compound 63, (R)-(4-(5-(1-(quinuclidin-3-yl)-1H-1,2,3-triazol-4-yl)thiophen-2-yl)phenyl)methanol] | 253 °C | 0.0006 ± 0.0002 | 
FC1(c2cn(-c3ccc(Br)cc3)nn2)CN2CCC1CC2 (centres unmarked) [Compound 71, 3-Fluoro-3-(1-(4-bromophenyl)-1H-1,2,3-triazol-4-yl)quinuclidine] | 127 °C | 0.15 ± 0.01 | 
Brc1cccc(-c2cn([C@H]3CN4CCC3CC4)nn2)c1 [Compound 83, (R)-3-[4-(3-bromophenyl)-1H-1,2,3-triazol-1-yl]quinuclidine] | 188 °C |  | 0.011
OCc1ccc(-c2ccc(-c3cn([C@H]4CN5CCC4CC5)nn3)o2)cc1 [Compound 84, (R)-[4-[5-[1-[quinuclidin-3-yl]-1H-1,2,3-triazol-4-yl]-2-furyl]-phenyl]-methanol] | 209 °C |  | 0.006
OCc1cccc(-c2ccc(-c3cn([C@H]4CN5CCC4CC5)nn3)s2)c1 [Compound 85, (R)-[3-[5-[1-[quinuclidin-3-yl]-1H2,3-triazol-4-yl]-2-thienyl]phenyl]methanol] | 181 °C |  | 
OCc1ccc(-c2csc(-c3cn([C@H]4CN5CCC4CC5)nn3)c2)cc1 [Compound 86, (R)-[4-[5-[1-[quinuclidin-3-yl]-1H-1,2,3-triazol-4-yl]-3-thienyl]phenyl]methanol] | 196 °C |  | 
Fc1ccc(-c2ccc(-c3cn([C@H]4CN5CCC4CC5)nn3)s2)cn1 [Compound 87, (R)-3-[4-[5-(6-fluoro-3-pyridyl)-2-thienyl]-1H,1,2,3-triazol-1-yl]quinuclidine] | 163 °C |  | 
Fc1ccc(-c2csc(-c3cn([C@H]4CN5CCC4CC5)nn3)c2)cn1 [Compound 88, (R)-3-[4-[4-(6-fluoro-3-pyridyl)-2-thienyl]-1H-1,2,3-triazol-1-yl]quinuclidine] | 136 °C |  | 
OCc1cccc(-c2csc(-c3cn([C@H]4CN5CCC4CC5)nn3)c2)c1 [Compound 89, (R)-[3-[5-[1-[quinuclidin-3-yl]-1H-1,2,3-triazol-4-yl]-3-thienyl]phenyl]methanol] | 211 °C | 0.013 | 
OCc1ccc(-c2coc(-c3cn([C@H]4CN5CCC4CC5)nn3)c2)cc1 [Compound 90, (R)-[4-[5-[1-[quinuclidin-3-yl]-1H-1,2,3-triazol-4-yl]-3-furyl]phenyl]methanol] | 202 °C |  | 0.009
Fc1ccc(-c2coc(-c3cn([C@H]4CN5CCC4CC5)nn3)c2)cn1 [Compound 91, (R)-3-[4-[4-(6-fluoro-3-pyridyl)-2-furyl]-1H-1,2,3-triazol-1-yl]quinuclidine] | 210 °C |  | 0.117
